Measurements from patent US20240270762A1, “PENICILLIN-BINDING PROTEIN INHIBITORS” (priority 2021, published 2024).
Values after ≈ are worked out from the molar mass of the structure shown. Like-named read-outs stand apart in the source and are kept apart here.

Legend:
A. baumannii 1258916 = test: microbe, parasite or virus in culture; type: cell-based, Acinetobacter baumannii; settings: Acinetobacter baumannii, 1258916, read-out: MIC, A. baumannii 1258916
N. gonorrhoeae WHO G = test: Liquid broth MIC in Fastidious broth; settings: Neisseria gonorrhoeae
Procedure: Additional antibacterial testing of the series was performed in 8 reference strains of N. gonorrhoeae (ATCC 49226, FA1090, MS 11, WHO G, WHO L, WHO M, WHO K, WHO X, WHO Z, WHO Q, CDC-0197). ATCC 49226, FA1090, MS11, WHO G, WHO L, and WHO M produce wild type or wild-type like PBP2. WHO K, WHO X, WHO Z, WHO Q, and CDC-0197 produce mosaic PBP2. Liquid broth-based assays were used for antibacterial testing of PBP inhibitors in Neisseria gonorrhoeae. Briefly, cryo-preserved bacterial cultures of clinical strains were streaked for isolation on Chocolate Agar (72 g/L (2×) GC Agar Base (BD #228950) and 2% (2×) Hemoglobin was autoclaved at 121° C. for 20 minutes to sterilize. Once cooled to ˜50° C. the 2×GC Agar Base and 2× Hemoglobin solutions are combined and 1% IsoVitaleX Enrichment (BD #211876) was added to the solution). Strains were incubated at 36° C. and 5% CO2 to allow growth of colonies, 24 hours before inoculum preparation. 2-fold serial dilutions of test compounds were conducted in a 96 well plate with a final volume of 75 μL per well at 2-fold the final desired concentration in Fastidious broth (Remel #R07664). For preparation of assay inoculum, a direct suspension was prepared by aseptically swabbing 10-15 colonies from agar plates into culture tubes containing 2 mL of fresh sterile saline. After the dilution plates were set up, direct suspensions were then diluted in a cuvette containing sterile saline and the optical density was measured at 600 nm. Inocula were diluted such that 75 μL of this culture in Fastidious broth results in a starting bacterial concentration of 5×10^5 CFU/mL when added to the dilution plates. The plates were incubated for ˜24 hours at 36° C. and 5% CO2.

A. baumannii ATCC 19606 = test: microbe, parasite or virus in culture; type: cell-based; settings: Acinetobacter baumannii, ATCC19606, read-out: MIC, A. baumannii ATCC 19606
N. gonorrhoeae CDC-0197 = test: Liquid broth MIC in Fastidious broth; settings: Neisseria gonorrhoeae
[1] = target: T1, PBP3 from Acinetobacter baumannii (ATCC 19606) (Acinetobacter baumannii, UniProt A0ABX6CK25); test: Bocillin-FL fluorescence polarization competition binding, A. baumannii PBP3; settings: fluorescence polarization competition binding assay using Bocillin-FL; read-out: A. baumannii PBP3 Potency
T1 sequence (A0ABX6CK25 64-610): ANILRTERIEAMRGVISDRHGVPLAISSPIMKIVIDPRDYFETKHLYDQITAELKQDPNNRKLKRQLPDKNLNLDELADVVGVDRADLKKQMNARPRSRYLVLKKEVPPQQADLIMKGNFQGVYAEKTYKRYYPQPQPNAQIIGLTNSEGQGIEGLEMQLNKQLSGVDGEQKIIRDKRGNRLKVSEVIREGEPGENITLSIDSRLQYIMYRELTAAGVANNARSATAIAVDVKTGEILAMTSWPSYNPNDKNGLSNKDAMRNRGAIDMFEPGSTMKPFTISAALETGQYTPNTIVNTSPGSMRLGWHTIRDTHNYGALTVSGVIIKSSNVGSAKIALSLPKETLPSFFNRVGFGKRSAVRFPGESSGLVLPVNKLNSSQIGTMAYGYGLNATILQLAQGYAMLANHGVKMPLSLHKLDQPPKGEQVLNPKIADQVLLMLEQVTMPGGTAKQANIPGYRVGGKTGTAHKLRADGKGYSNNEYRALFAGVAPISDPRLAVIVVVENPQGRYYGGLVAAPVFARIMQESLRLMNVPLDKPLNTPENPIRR
Procedure, shortened: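 Purified PBPs pre-incubated with inhibitor (E. coli PBP3 1.5 μM, 30 min; P. aeruginosa PBP3 0.75 μM, A. baumannii PBP1a 1 μM and PBP3 0.2 μM, 15 min), then Bocillin-FL 0.1 μM (0.05 μM for PBP1a) added; FP read up to 60 min. EC50 = concentration halving bound Bocillin-FL.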

N. gonorrhoeae WHO M = test: Liquid broth MIC in Fastidious broth; settings: Neisseria gonorrhoeae
A. baumannii CDC-0045 = test: microbe, parasite or virus in culture; type: cell-based; settings: Acinetobacter baumannii, CDC0045, read-out: MIC, A. baumannii CDC-0045
P. aeruginosa CDC-0090 = test: microbe, parasite or virus in culture; type: cell-based; settings: Pseudomonas aeruginosa, CDC0090, read-out: Minimum inhibitory concentration, P. aeruginosa CDC-0090
[2] = read-out: Minimum Inhibitory Concentration, WHO G
[3] = CDC0197, read-out: Minimum Inhibitory Concentration, CDC-0197
[4] = read-out: Minimum Inhibitory Concentration, WHO M
[5] = read-out: Minimum Inhibitory Concentration (MIC), N. gonorrhoeae WHO G
[6] = CDC0197, read-out: Minimum Inhibitory Concentration (MIC), N. gonorrhoeae CDC-0197
[7] = read-out: Minimum Inhibitory Concentration (MIC), N. gonorrhoeae WHO M

SMILES | MIC (A. baumannii 1258916) | MIC (N. gonorrhoeae WHO G; [2]) | MIC (A. baumannii ATCC 19606) | MIC (N. gonorrhoeae CDC-0197; [3]) | IC50 [1] | MIC (N. gonorrhoeae WHO M; [4]) | MIC (A. baumannii CDC-0045) | MIC (P. aeruginosa CDC-0090) | MIC (N. gonorrhoeae WHO G; [5]) | MIC (N. gonorrhoeae CDC-0197; [6]) | MIC (N. gonorrhoeae WHO M; [7])
O=C(NCCS(=O)(=O)N1CCN(C(=O)NC(C(=O)N[C@H]2Cc3ccc(F)c(C(=O)O)c3OB2O)c2cc(F)c(O)c(O)c2Cl)C1=O)c1cccnc1 (stereo partly drawn) [Example 262, (3R)-3-(2-(2-chloro-5-fluoro-3,4-dihydroxyphenyl)-2-(3-((2-(nicotinamido)ethyl)sulfonyl)-2-oxoimidazolidine-1-carboxamido)acetamido)-7-fluoro-2-hydroxy-3,4-dihydro-2H-benzo[e][1,2]oxaborinine-8-carboxylic acid] | < 1 µg/mL | 16 to 32 µg/mL (≈ 20.9 to 41.7 µM) | < 1 µg/mL | 16 to 32 µg/mL (≈ 20.9 to 41.7 µM) | < 10 µM | 16 to 32 µg/mL (≈ 20.9 to 41.7 µM) | < 1 µg/mL | < 1 µg/mL |  |  | 
CN(CCN1CCN(C(=O)N[C@@H](C(=O)N[C@H]2Cc3ccc(F)c(C(=O)O)c3OB2O)c2cc(F)c(O)c(O)c2Cl)C(=O)C1=O)Cc1cccc(C(N)=O)c1 [Example 225, (R)-3-((R)-2-(4-(2-((3-carbamoylbenzyl)(methyl)amino)ethyl)-2,3-dioxopiperazine-1-carboxamido)-2-(2-chloro-5-fluoro-3,4-dihydroxyphenyl)acetamido)-7-fluoro-2-hydroxy-3,4-dihydro-2H-benzo[e][1,2]oxaborinine-8-carboxylic acid] | < 1 µg/mL |  | < 1 µg/mL |  | < 10 µM |  | < 1 µg/mL | < 1 µg/mL | 16 to 32 µg/mL (≈ 20.7 to 41.4 µM) | 16 to 32 µg/mL (≈ 20.7 to 41.4 µM) | 16 to 32 µg/mL (≈ 20.7 to 41.4 µM)
O=C(CN1CCN(C(=O)NC(C(=O)N[C@H]2Cc3ccc(F)c(C(=O)O)c3OB2O)c2cc(F)c(O)c(O)c2Cl)C(=O)C1=O)NCc1cccc(O)c1 (stereo partly drawn) [Example 237, (3R)-3-(2-(2-chloro-5-fluoro-3,4-dihydroxyphenyl)-2-(4-(2-((3-hydroxybenzyl)amino)-2-oxoethyl)-2,3-dioxopiperazine-1-carboxamido)acetamido)-7-fluoro-2-hydroxy-3,4-dihydro-2H-benzo[e][1,2]oxaborinine-8-carboxylic acid] | 2 to 4 µg/mL (≈ 2.68 to 5.36 µM) |  | < 1 µg/mL |  | < 10 µM |  | 8 to 16 µg/mL (≈ 10.7 to 21.5 µM) | 2 to 4 µg/mL (≈ 2.68 to 5.36 µM) | 4 to 8 µg/mL (≈ 5.36 to 10.7 µM) | 16 to 32 µg/mL (≈ 21.5 to 42.9 µM) | 4 to 8 µg/mL (≈ 5.36 to 10.7 µM)
O=C(NCCN1CCN(C(=O)NC(C(=O)N[C@H]2Cc3ccc(F)c(C(=O)O)c3OB2O)c2cc(F)c(O)c(O)c2Cl)C1=O)Nc1cccnc1 (stereo partly drawn) [Example 251, (3R)-3-(2-(2-chloro-5-fluoro-3,4-dihydroxyphenyl)-2-(2-oxo-3-(2-(3-(pyridin-3-yl)ureido)ethyl)imidazolidine-1-carboxamido)acetamido)-7-fluoro-2-hydroxy-3,4-dihydro-2H-benzo[e][1,2]oxaborinine-8-carboxylic acid] | < 1 µg/mL | 16 to 32 µg/mL (≈ 22.3 to 44.6 µM) | < 1 µg/mL | > 64 µg/mL | < 10 µM | 16 to 32 µg/mL (≈ 22.3 to 44.6 µM) | < 1 µg/mL | 2 to 4 µg/mL (≈ 2.79 to 5.57 µM) |  |  | 
CN(CCN1CCN(C(=O)NC(C(=O)N[C@H]2Cc3ccc(F)c(C(=O)O)c3OB2O)c2cc(F)c(O)c(O)c2Cl)C(=O)C1=O)S(=O)(=O)c1ccc(C(N)=O)cc1 (stereo partly drawn) [Example 223, (3R)-3-(2-(4-(2-((4-carbamoyl-N-methylphenyl)sulfonamido)ethyl)-2,3-dioxopiperazine-1-carboxamido)-2-(2-chloro-5-fluoro-3,4-dihydroxyphenyl)acetamido)-7-fluoro-2-hydroxy-3,4-dihydro-2H-benzo[e][1,2]oxaborinine-8-carboxylic acid] | 2 to 4 µg/mL (≈ 2.43 to 4.86 µM) |  | < 1 µg/mL |  | < 10 µM |  | < 1 µg/mL | 2 to 4 µg/mL (≈ 2.43 to 4.86 µM) | 16 to 32 µg/mL (≈ 19.4 to 38.9 µM) | > 64 µg/mL | 16 to 32 µg/mL (≈ 19.4 to 38.9 µM)
O=C(CN1CCN(C(=O)NC(C(=O)N[C@H]2Cc3ccc(F)c(C(=O)O)c3OB2O)c2cc(F)c(O)c(O)c2Cl)C(=O)C1=O)Nc1cccc(O)c1 (stereo partly drawn) [Example 231, (3R)-3-(2-(2-chloro-5-fluoro-3,4-dihydroxyphenyl)-2-(4-(2-((3-hydroxyphenyl)amino)-2-oxoethyl)-2,3-dioxopiperazine-1-carboxamido)acetamido)-7-fluoro-2-hydroxy-3,4-dihydro-2H-benzo[e][1,2]oxaborinine-8-carboxylic acid] | 2 to 4 µg/mL (≈ 2.73 to 5.47 µM) |  | < 1 µg/mL |  | < 10 µM |  | 2 to 4 µg/mL (≈ 2.73 to 5.47 µM) | 2 to 4 µg/mL (≈ 2.73 to 5.47 µM) | 4 to 8 µg/mL (≈ 5.47 to 10.9 µM) | 16 to 32 µg/mL (≈ 21.9 to 43.7 µM) | 4 to 8 µg/mL (≈ 5.47 to 10.9 µM)
O=C(NCCCS(=O)(=O)N1CCN(C(=O)NC(C(=O)N[C@H]2Cc3ccc(F)c(C(=O)O)c3OB2O)c2cc(F)c(O)c(O)c2Cl)C1=O)c1ccccc1 (stereo partly drawn) [Example 268, (3R)-3-(2-(3-((3-benzamidopropyl)sulfonyl)-2-oxoimidazolidine-1-carboxamido)-2-(2-chloro-5-fluoro-3,4-dihydroxyphenyl)acetamido)-7-fluoro-2-hydroxy-3,4-dihydro-2H-benzo[e][1,2]oxaborinine-8-carboxylic acid] | < 1 µg/mL | 16 to 32 µg/mL (≈ 20.5 to 41 µM) | < 1 µg/mL | 16 to 32 µg/mL (≈ 20.5 to 41 µM) | < 10 µM | 16 to 32 µg/mL (≈ 20.5 to 41 µM) | 2 to 4 µg/mL (≈ 2.56 to 5.13 µM) | 2 to 4 µg/mL (≈ 2.56 to 5.13 µM) |  |  | 
O=C(NCCCN1CCN(C(=O)NC(C(=O)N[C@H]2Cc3ccc(F)c(C(=O)O)c3OB2O)c2cc(F)c(O)c(O)c2Cl)C(=O)C1=O)c1ccc(O)cc1 (stereo partly drawn) [Example 203, (3R)-3-(2-(2-chloro-5-fluoro-3,4-dihydroxyphenyl)-2-(4-(3-(4-hydroxybenzamido)propyl)-2,3-dioxopiperazine-1-carboxamido)acetamido)-7-fluoro-2-hydroxy-3,4-dihydro-2H-benzo[e][1,2]oxaborinine-8-carboxylic acid] | < 1 µg/mL |  | < 1 µg/mL |  | < 10 µM |  | < 1 µg/mL | < 1 µg/mL | 4 to 8 µg/mL (≈ 5.26 to 10.5 µM) | 16 to 32 µg/mL (≈ 21.1 to 42.1 µM) | 4 to 8 µg/mL (≈ 5.26 to 10.5 µM)
O=C(NCCS(=O)(=O)N1CCN(C(=O)NC(C(=O)N[C@H]2Cc3ccc(F)c(C(=O)O)c3OB2O)c2cc(F)c(O)c(O)c2Cl)C1=O)c1cccc(O)c1 (stereo partly drawn) [Example 261, (3R)-3-(2-(2-chloro-5-fluoro-3,4-dihydroxyphenyl)-2-(3-((2-(3-hydroxybenzamido)ethyl)sulfonyl)-2-oxoimidazolidine-1-carboxamido)acetamido)-7-fluoro-2-hydroxy-3,4-dihydro-2H-benzo[e][1,2]oxaborinine-8-carboxylic acid] | < 1 µg/mL | 16 to 32 µg/mL (≈ 20.5 to 40.9 µM) | < 1 µg/mL | 16 to 32 µg/mL (≈ 20.5 to 40.9 µM) | < 10 µM | 4 to 8 µg/mL (≈ 5.12 to 10.2 µM) | < 1 µg/mL | 2 to 4 µg/mL (≈ 2.56 to 5.12 µM) |  |  | 
O=C(NCCCN1CCN(C(=O)N[C@H](C(=O)N[C@H]2Cc3ccc(F)c(C(=O)O)c3OB2O)c2cc(F)c(O)c(O)c2Cl)C1=O)c1cccc(O)c1 [Example 254, (R)-3-((S)-2-(2-chloro-5-fluoro-3,4-dihydroxyphenyl)-2-(3-(3-(3-hydroxybenzamido)propyl)-2-oxoimidazolidine-1-carboxamido)acetamido)-7-fluoro-2-hydroxy-3,4-dihydro-2H-benzo[e][1,2]oxaborinine-8-carboxylic acid] | > 128 µg/mL | > 64 µg/mL | 8 to 16 µg/mL (≈ 10.9 to 21.9 µM) | > 64 µg/mL | 10 to 50 µM | > 64 µg/mL | > 128 µg/mL | > 128 µg/mL |  |  | 
O=C(NCCCS(=O)(=O)N1CCN(C(=O)N[C@@H](C(=O)N[C@H]2Cc3ccc(F)c(C(=O)O)c3OB2O)c2cc(F)c(O)c(O)c2Cl)C1=O)c1cccc(O)c1 [Example 271, (R)-3-((R)-2-(2-chloro-5-fluoro-3,4-dihydroxyphenyl)-2-(3-((3-(3-hydroxybenzamido)propyl)sulfonyl)-2-oxoimidazolidine-1-carboxamido)acetamido)-7-fluoro-2-hydroxy-3,4-dihydro-2H-benzo[e][1,2]oxaborinine-8-carboxylic acid] | < 1 µg/mL | 16 to 32 µg/mL (≈ 20.1 to 40.2 µM) | < 1 µg/mL | 16 to 32 µg/mL (≈ 20.1 to 40.2 µM) | < 10 µM | 4 to 8 µg/mL (≈ 5.03 to 10.1 µM) | < 1 µg/mL | 2 to 4 µg/mL (≈ 2.51 to 5.03 µM) |  |  | 
